Measurements as given in ChEMBL document CHEMBL2069196, “Synthesis and evaluation of novel 4-[(3H,3aH,6aH)-3-phenyl)-4,6-dioxo-2-phenyldihydro-2H-pyrrolo[3,4-d]isoxazol-5(3H,6H,6aH)-yl]benzoic acid derivatives as potent acetylcholinesterase inhibitors and anti-amnestic agents” (Bioorg Med Chem, 2012).
Active and inactive are the calls of the source. No cut-off for these calls is given here.

These compounds were tested against T1, Acetylcholinesterase (Rattus norvegicus, UniProt P37136) (assay: Inhibition of AChE activity in rat brain homogenate using acetylthiocholine as substrate by Ellman's method). Details: not given.
T1 sequence (P37136 whole entry): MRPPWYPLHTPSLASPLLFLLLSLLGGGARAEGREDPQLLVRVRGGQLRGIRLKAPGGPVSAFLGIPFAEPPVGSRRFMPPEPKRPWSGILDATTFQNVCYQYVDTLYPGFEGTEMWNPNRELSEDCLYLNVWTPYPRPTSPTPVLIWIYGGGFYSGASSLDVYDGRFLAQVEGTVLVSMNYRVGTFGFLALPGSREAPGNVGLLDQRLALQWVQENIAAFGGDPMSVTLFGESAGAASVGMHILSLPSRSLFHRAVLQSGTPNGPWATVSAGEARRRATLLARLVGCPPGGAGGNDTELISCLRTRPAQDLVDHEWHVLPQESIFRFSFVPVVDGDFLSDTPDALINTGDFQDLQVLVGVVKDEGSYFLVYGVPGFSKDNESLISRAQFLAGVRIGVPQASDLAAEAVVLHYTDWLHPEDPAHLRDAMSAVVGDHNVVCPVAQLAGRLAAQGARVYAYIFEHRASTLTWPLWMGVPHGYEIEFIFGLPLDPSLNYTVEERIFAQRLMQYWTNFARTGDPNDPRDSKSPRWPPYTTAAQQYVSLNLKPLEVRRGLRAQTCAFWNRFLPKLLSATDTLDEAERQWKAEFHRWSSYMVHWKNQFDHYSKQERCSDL
Format: tissue-based
Compound `COc1ccccc1[C@H]1[C@@H]2C(=O)N(c3ccc(C(=O)O)cc3)C(=O)[C@@H]2ON1c1ccc(C)cc1` (relative stereo) has an IC50 of 0.0202 µM.
For `COc1ccc([C@H]2[C@@H]3C(=O)N(c4ccc(C(=O)O)cc4)C(=O)[C@@H]3ON2c2ccccc2)cc1`, the IC50 was 0.0191 µM.
`O=C(O)c1ccc(N2C(=O)[C@H]3[C@H](ON(c4ccccc4)[C@H]3c3ccccc3O)C2=O)cc1` (relative stereo) was tested, and the IC50 was 0.0239 µM.
With `Cc1ccc(N2O[C@@H]3C(=O)N(c4ccc(C(=O)O)cc4)C(=O)[C@@H]3[C@@H]2c2ccccc2)cc1` (relative stereo) the IC50 was 0.0228 µM.
In the case of `O=C(O)c1ccc(N2C(=O)[C@H]3[C@H](ON(c4ccccc4)[C@H]3c3ccc(O)cc3)C2=O)cc1` (relative stereo), the IC50 is reported as 0.0225 µM.
`COc1cccc([C@H]2[C@@H]3C(=O)N(c4ccc(C(=O)O)cc4)C(=O)[C@@H]3ON2c2ccc(C)cc2)c1` (relative stereo) gave an IC50 of 0.0199 µM.
Work on `Cc1ccc(N2O[C@@H]3C(=O)N(c4ccc(C(=O)O)cc4)C(=O)[C@@H]3[C@@H]2c2ccc(O)cc2)cc1` (relative stereo) yielded an IC50 of 0.0219 µM.
For `O=C(O)c1ccc(N2C(=O)[C@H]3[C@H](ON(c4ccccc4)[C@H]3c3ccccc3Cl)C2=O)cc1` (relative stereo), the IC50 was 0.0218 µM.
For `COc1ccc([C@H]2[C@H]3C(=O)N(c4ccc(C(=O)O)cc4)C(=O)[C@H]3ON2c2ccccc2)cc1` (relative stereo), the IC50 was 0.0188 µM.
Compound `COc1cccc([C@H]2[C@H]3C(=O)N(c4ccc(C(=O)O)cc4)C(=O)[C@H]3ON2c2ccccc2)c1` (relative stereo) has an IC50 of 0.0191 µM.
Compound `O=C(O)c1ccc(N2C(=O)[C@@H]3[C@@H](ON(c4ccccc4)[C@H]3c3ccccc3O)C2=O)cc1` (relative stereo) has an IC50 of 0.0248 µM.
Compound `Cc1ccc(N2O[C@H]3C(=O)N(c4ccc(C(=O)O)cc4)C(=O)[C@H]3[C@@H]2c2ccc(O)cc2)cc1` (relative stereo) has an IC50 of 0.0225 µM.
`O=C(O)c1ccc(N2C(=O)[C@H]3[C@H](ON(c4ccccc4)[C@H]3c3ccccc3)C2=O)cc1` (relative stereo) was tested, and the IC50 was 0.0239 µM.
In the case of `O=C(O)c1ccc(N2C(=O)[C@@H]3[C@@H](ON(c4ccccc4)[C@H]3c3cccc(Cl)c3)C2=O)cc1` (relative stereo), the IC50 is reported as 0.0218 µM.
Work on `O=C(O)c1ccc(N2C(=O)[C@@H]3[C@@H](ON(c4ccccc4)[C@H]3c3ccccc3[N+](=O)[O-])C2=O)cc1` (relative stereo) yielded an IC50 of 0.0269 µM.
With `O=C(O)c1ccc(N2C(=O)[C@H]3[C@H](ON(c4ccccc4)[C@H]3c3ccc([N+](=O)[O-])cc3)C2=O)cc1` (relative stereo) the IC50 was 0.0258 µM.
`COc1ccccc1[C@H]1[C@H]2C(=O)N(c3ccc(C(=O)O)cc3)C(=O)[C@H]2ON1c1ccc(C)cc1` (relative stereo) was tested, and the IC50 was 0.0191 µM.
With `COc1cccc([C@H]2[C@@H]3C(=O)N(c4ccc(C(=O)O)cc4)C(=O)[C@@H]3ON2c2ccccc2)c1` (relative stereo) the IC50 was 0.0205 µM.
`Cc1ccc(N2O[C@H]3C(=O)N(c4ccc(C(=O)O)cc4)C(=O)[C@H]3[C@@H]2c2ccccc2O)cc1` (relative stereo) gave an IC50 of 0.0241 µM.
`COc1ccc([C@H]2[C@@H]3C(=O)N(c4ccc(C(=O)O)cc4)C(=O)[C@@H]3ON2c2ccc(C)cc2)cc1` (relative stereo) gave an IC50 of 0.018 µM.
`Cc1ccc(N2O[C@H]3C(=O)N(c4ccc(C(=O)O)cc4)C(=O)[C@H]3[C@@H]2c2ccc([N+](=O)[O-])cc2)cc1` showed an IC50 of 0.0241 µM.
`Cc1ccc(N2O[C@H]3C(=O)N(c4ccc(C(=O)O)cc4)C(=O)[C@H]3[C@@H]2c2ccccc2Cl)cc1` (relative stereo) showed an IC50 of 0.0221 µM.
Compound `COc1cccc([C@H]2[C@H]3C(=O)N(c4ccc(C(=O)O)cc4)C(=O)[C@H]3ON2c2ccc(C)cc2)c1` (relative stereo) has an IC50 of 0.0188 µM.
Compound `O=C(O)c1ccc(N2C(=O)[C@H]3[C@H](ON(c4ccccc4)[C@H]3c3ccc(Cl)cc3)C2=O)cc1` (relative stereo) has an IC50 of 0.0197 µM.
Compound `COc1ccccc1[C@H]1[C@H]2C(=O)N(c3ccc(C(=O)O)cc3)C(=O)[C@H]2ON1c1ccccc1` (relative stereo) has an IC50 of 0.0192 µM.
With `O=C(O)c1ccc(N2C(=O)[C@@H]3[C@@H](ON(c4ccccc4)[C@H]3c3ccccc3Cl)C2=O)cc1` (relative stereo) the IC50 was 0.0224 µM.
`O=C(O)c1ccc(N2C(=O)[C@H]3[C@H](ON(c4ccccc4)[C@H]3c3ccccc3[N+](=O)[O-])C2=O)cc1` (relative stereo) gave an IC50 of 0.0261 µM.
`COc1ccc([C@H]2[C@H]3C(=O)N(c4ccc(C(=O)O)cc4)C(=O)[C@H]3ON2c2ccc(C)cc2)cc1` (relative stereo) was tested, and the IC50 was 0.0175 µM.
Compound `Cc1ccc(N2O[C@@H]3C(=O)N(c4ccc(C(=O)O)cc4)C(=O)[C@@H]3[C@@H]2c2ccccc2[N+](=O)[O-])cc1` (relative stereo) has an IC50 of 0.0243 µM.
`Cc1ccc(N2O[C@@H]3C(=O)N(c4ccc(C(=O)O)cc4)C(=O)[C@@H]3[C@@H]2c2cccc(Cl)c2)cc1` (relative stereo) was tested, and the IC50 was 0.0222 µM.
For `COc1ccccc1[C@H]1[C@@H]2C(=O)N(c3ccc(C(=O)O)cc3)C(=O)[C@@H]2ON1c1ccccc1` (relative stereo), the IC50 was 0.0206 µM.
For `O=C(O)c1ccc(N2C(=O)[C@@H]3[C@@H](ON(c4ccccc4)[C@H]3c3ccc(O)cc3)C2=O)cc1` (relative stereo), the IC50 was 0.0227 µM.
`Cc1ccc(N2O[C@H]3C(=O)N(c4ccc(C(=O)O)cc4)C(=O)[C@H]3[C@@H]2c2ccccc2[N+](=O)[O-])cc1` (relative stereo) gave an IC50 of 0.0252 µM.
`O=C(O)c1ccc(N2C(=O)[C@H]3[C@H](ON(c4ccccc4)[C@H]3c3cccc(Cl)c3)C2=O)cc1` (relative stereo) gave an IC50 of 0.0201 µM.
`Cc1ccc(N2O[C@@H]3C(=O)N(c4ccc(C(=O)O)cc4)C(=O)[C@@H]3[C@@H]2c2ccc([N+](=O)[O-])cc2)cc1` (relative stereo) showed an IC50 of 0.0234 µM.
In the case of `O=C(O)c1ccc(N2C(=O)[C@@H]3[C@@H](ON(c4ccccc4)[C@H]3c3ccccc3)C2=O)cc1` (relative stereo), the IC50 is reported as 0.0244 µM.
`O=C(O)c1ccc(N2C(=O)[C@@H]3[C@@H](ON(c4ccccc4)[C@H]3c3ccc([N+](=O)[O-])cc3)C2=O)cc1` (relative stereo) gave an IC50 of 0.0264 µM.
`Cc1ccc(N2O[C@@H]3C(=O)N(c4ccc(C(=O)O)cc4)C(=O)[C@@H]3[C@@H]2c2ccccc2O)cc1` showed an IC50 of 0.0232 µM.
With `O=C(O)c1ccc(N2C(=O)[C@@H]3[C@@H](ON(c4ccccc4)[C@H]3c3ccc(Cl)cc3)C2=O)cc1` (relative stereo) the IC50 was 0.0209 µM.
`Cc1ccc(N2O[C@@H]3C(=O)N(c4ccc(C(=O)O)cc4)C(=O)[C@@H]3[C@@H]2c2ccccc2Cl)cc1` (relative stereo) gave an IC50 of 0.0213 µM.
`Cc1ccc(N2O[C@@H]3C(=O)N(c4ccc(C(=O)O)cc4)C(=O)[C@@H]3[C@@H]2c2ccc(Cl)cc2)cc1` (relative stereo) showed an IC50 of 0.0192 µM.
`Cc1ccc(N2O[C@H]3C(=O)N(c4ccc(C(=O)O)cc4)C(=O)[C@H]3[C@@H]2c2ccc(Cl)cc2)cc1` showed an IC50 of 0.0204 µM.
Work on `Cc1ccc(N2O[C@H]3C(=O)N(c4ccc(C(=O)O)cc4)C(=O)[C@H]3[C@@H]2c2cccc(Cl)c2)cc1` (relative stereo) yielded an IC50 of 0.0238 µM.
For `Cc1ccc(N2O[C@H]3C(=O)N(c4ccc(C(=O)O)cc4)C(=O)[C@H]3[C@@H]2c2ccccc2)cc1` (relative stereo), the IC50 was 0.0224 µM.

Each compound was assayed against Butyrylcholinesterase (Rattus norvegicus, UniProt Q9JKC1) (assay: Inhibition of BuChE activity in rat plasma using […] as substrate by Ellman's method). Details: not given.
Butyrylcholinesterase, sequence (Q9JKC1 whole entry): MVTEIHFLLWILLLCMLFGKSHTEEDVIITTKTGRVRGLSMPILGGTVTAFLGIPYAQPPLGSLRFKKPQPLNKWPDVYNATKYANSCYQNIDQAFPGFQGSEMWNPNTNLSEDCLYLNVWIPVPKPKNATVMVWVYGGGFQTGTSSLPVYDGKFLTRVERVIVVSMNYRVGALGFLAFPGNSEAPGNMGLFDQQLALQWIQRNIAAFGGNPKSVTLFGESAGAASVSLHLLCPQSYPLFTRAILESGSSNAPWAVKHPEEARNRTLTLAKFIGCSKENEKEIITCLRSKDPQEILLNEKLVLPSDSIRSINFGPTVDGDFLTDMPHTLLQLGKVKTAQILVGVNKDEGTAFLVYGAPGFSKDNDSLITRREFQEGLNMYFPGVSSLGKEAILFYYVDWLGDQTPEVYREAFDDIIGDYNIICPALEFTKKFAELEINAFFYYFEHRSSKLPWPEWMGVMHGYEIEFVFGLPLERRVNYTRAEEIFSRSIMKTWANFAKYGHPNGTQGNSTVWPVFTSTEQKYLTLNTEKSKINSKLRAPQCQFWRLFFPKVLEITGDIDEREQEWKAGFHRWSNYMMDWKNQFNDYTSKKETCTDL
Format: cell-free
Compound `COc1ccc([C@H]2[C@H]3C(=O)N(c4ccc(C(=O)O)cc4)C(=O)[C@H]3ON2c2ccc(C)cc2)cc1` (relative stereo) has an IC50 of 15.3 µM.

These compounds were tested on Mus musculus (assay: Antiamnesic activity in mouse assessed as inhibition of scopolamine-induced escape latency time at 2 mg/kg, ip measured on day 1 by Morris water maze test (reference value: 89.7 +/- 3.8 secs)). Details: route intraperitoneal.
Format: functional
Compound `COc1ccc([C@H]2[C@H]3C(=O)N(c4ccc(C(=O)O)cc4)C(=O)[C@H]3ON2c2ccc(C)cc2)cc1` (relative stereo) has a Time of 83.7 s.

These compounds were tested on Mus musculus (assay: Antiamnesic activity in mouse assessed as inhibition of scopolamine-induced escape latency time at 5 mg/kg, ip measured on day 1 by Morris water maze test (reference value: 89.7 +/- 3.8 secs)). Details: route intraperitoneal.
Format: functional
`COc1ccc([C@H]2[C@H]3C(=O)N(c4ccc(C(=O)O)cc4)C(=O)[C@H]3ON2c2ccc(C)cc2)cc1` (relative stereo) gave a Time of 85.2 s.

The compounds below were run on Mus musculus (assay: Antiamnesic activity in mouse assessed as inhibition of scopolamine-induced escape latency time at 10 mg/kg, ip measured on day 1 by Morris water maze test (reference value: 89.7 +/- 3.8 secs)). Details: route intraperitoneal.
Format: functional
In the case of `COc1ccc([C@H]2[C@H]3C(=O)N(c4ccc(C(=O)O)cc4)C(=O)[C@H]3ON2c2ccc(C)cc2)cc1` (relative stereo), the Time is reported as 81.2 s.

Each compound was assayed on Mus musculus (assay: Antiamnesic activity in mouse assessed as inhibition of scopolamine-induced escape latency time at 2 mg/kg, ip measured on day 4 by Morris water maze test (reference value: 78.7 +/- 5.7 secs)). Details: route intraperitoneal.
Format: functional
With `COc1ccc([C@H]2[C@H]3C(=O)N(c4ccc(C(=O)O)cc4)C(=O)[C@H]3ON2c2ccc(C)cc2)cc1` (relative stereo) the Time was 74.8 s.

Each compound was assayed on Mus musculus (assay: Antiamnesic activity in mouse assessed as inhibition of scopolamine-induced escape latency time at 5 mg/kg, ip measured on day 4 by Morris water maze test (reference value: 78.7 +/- 5.7 secs)). Details: route intraperitoneal.
Format: functional
`COc1ccc([C@H]2[C@H]3C(=O)N(c4ccc(C(=O)O)cc4)C(=O)[C@H]3ON2c2ccc(C)cc2)cc1` (relative stereo) gave a Time of 69.5 s.

These compounds were tested on Mus musculus (assay: Antiamnesic activity in mouse assessed as inhibition of scopolamine-induced escape latency time at 10 mg/kg, ip measured on day 4 by Morris water maze test (reference value: 78.7 +/- 5.7 secs)). Details: route intraperitoneal.
Format: functional
Compound `COc1ccc([C@H]2[C@H]3C(=O)N(c4ccc(C(=O)O)cc4)C(=O)[C@H]3ON2c2ccc(C)cc2)cc1` (relative stereo) has a Time of 49.1 s.

Each compound was assayed on Mus musculus (assay: Antiamnesic activity in scopolamine-induced amnesia mouse model assessed as increase in time spent in target quadrant at 5 mg/kg, ip measured on day 5 by Morris water maze test). Details: not given.
Format: functional, organism-based
Design: dose 5 mg/kg
For `COc1ccc([C@H]2[C@H]3C(=O)N(c4ccc(C(=O)O)cc4)C(=O)[C@H]3ON2c2ccc(C)cc2)cc1` (relative stereo), the Activity was “Active”.

These compounds were tested on Mus musculus (assay: Antiamnesic activity in scopolamine-induced amnesia mouse model assessed as increase in time spent in target quadrant at 10 mg/kg, ip measured on day 5 by Morris water maze test). Details: not given.
Format: functional, organism-based
Design: dose 10 mg/kg
In the case of `COc1ccc([C@H]2[C@H]3C(=O)N(c4ccc(C(=O)O)cc4)C(=O)[C@H]3ON2c2ccc(C)cc2)cc1` (relative stereo), the Activity is reported as “Active”.

These compounds were tested on Mus musculus (assay: Antiamnesic activity in scopolamine-induced amnesia mouse model assessed as increase in time spent in target quadrant at 25 mg/kg, ip measured on day 5 by Morris water maze test). Details: not given.
Format: functional, organism-based
Design: dose 25 mg/kg
With `COc1cc2c(cc1OC)C(=O)C(CC1CCN(Cc3ccccc3)CC1)C2` (centres undefined) the Activity was “Active”.
